Source: US11771679B2, “Composition containing hesperetin and synergistic hypoglycemic application thereof” (ZHENGZHOU FRUIT RESEARCH INSTITUTE, CHINESE ACADEMY OF …, priority 2021, dated 2023)

Target: T1, α-glucosidase (Saccharomyces cerevisiae, UniProt P53341)
T1 construct: purchased Sigma
Experiment: α-glucosidase inhibition test (pNPG substrate, OD 405 nm); CI calculated with CompuSyn (Chou-Talalay)
Format: biochemical
Details: for Inhibition rate: single compound
Text: [drawing 3] • α-glucosidase (coming from Saccharomyces cerevisiae, Sigma); • 4-nitrophenyl-α-D-glucopyranoside (pNPG, TOKYO Chemica Industry Co., LTD); • acarbose (Acarbose, TOKYO Chemica Industry Co., LTD); • hesperetin, galangin, and formononetin (BEIJING Solarbio Technology Co., LTD); • Millipore Simplicity water purification system (Millipore, France); • sodium phosphate salt buffer solution (pH 6.8, 0.1 mol L-1); and • microplate reader TECAN infinite M200 PRO (Teacan Group Ltd., Swizerland).
an α-glucosidase solution with a concentration being 0.25 U/mL and a substrate p-nitrophenyl-α-D-glucopyranoside (pNPG) solution with a concentration being 5 mmol/mL were prepared by using a PBS buffer solution (0.1 mol/L pH 6.8).
100 μL of sample solution was added to each hole, then 40 μL of α-glucosidase (0.25 U/mL) was added, reacted for 15 min at 37° C., and then 60 μL of substrate p-nitrophenyl-α-D-glucopyranoside (5 mmol/mL) was added; and after placed at 37° C. to react for 15 min, a microplate reader measured at a wave length of 405 nm.
CI values are calculated according to CompuSyn software to evaluate synergistic effect among drugs.

T1 sequence (P53341 whole entry): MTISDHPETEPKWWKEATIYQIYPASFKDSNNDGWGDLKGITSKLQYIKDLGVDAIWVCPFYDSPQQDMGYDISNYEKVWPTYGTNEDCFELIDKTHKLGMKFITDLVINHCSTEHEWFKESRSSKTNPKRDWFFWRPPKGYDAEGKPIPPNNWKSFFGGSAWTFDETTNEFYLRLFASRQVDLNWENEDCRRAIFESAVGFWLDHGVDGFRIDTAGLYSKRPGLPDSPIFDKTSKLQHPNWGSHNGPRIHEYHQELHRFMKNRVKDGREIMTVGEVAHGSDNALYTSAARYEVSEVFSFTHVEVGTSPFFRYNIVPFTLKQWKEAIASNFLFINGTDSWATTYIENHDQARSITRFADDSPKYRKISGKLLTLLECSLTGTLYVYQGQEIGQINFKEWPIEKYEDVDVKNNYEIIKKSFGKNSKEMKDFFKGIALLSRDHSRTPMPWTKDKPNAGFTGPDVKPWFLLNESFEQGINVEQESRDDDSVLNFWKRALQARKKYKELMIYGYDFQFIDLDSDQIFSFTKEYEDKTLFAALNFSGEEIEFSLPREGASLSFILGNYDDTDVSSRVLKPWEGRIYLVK

Compound `COc1c(-c2ccc(O)c(O)c2)oc2cc(O)cc(O)c2c1=O` [3-O-methyl quercetin] has an inhibition at 2 µg/mL (read-out: Inhibition rate) of 46.2 ± 1.2%.

Work on `O=c1cc(-c2ccc(O)cc2)oc2cc(O)cc(O)c12` [Apigenin] yielded an inhibition at 6 µg/mL (read-out: Inhibition rate) of 56.1 ± 4.4%.

In the case of `O=c1cc(-c2ccccc2)oc2cc(O)c(O)c(O)c12` [Baicalein], the inhibition at 10 µg/mL (read-out: Inhibition rate) is reported as 38.8 ± 3.3%.

For `COc1ccc(-c2coc3cc(O)cc(O)c3c2=O)cc1` [Biochanin A], the inhibition at 0.7 µg/mL (read-out: Inhibition rate) was 38.5 ± 2.1%.

`COc1ccc(-c2coc3cc(O)ccc3c2=O)cc1O` [Calycosin] was tested, and the inhibition at 6 µg/mL (read-out: Inhibition rate) was 56.6 ± 4.3%.

`Oc1cc(O)c2cc(O)c(-c3ccc(O)c(O)c3)[o+]c2c1` [Cyanidin] gave an inhibition at 0.7 µg/mL (read-out: Inhibition rate) of 47.5 ± 1.4%.

Work on `O=c1c(-c2ccc(O)cc2)coc2cc(O)ccc12` [Daidzein] yielded an inhibition at 8 µg/mL (read-out: Inhibition rate) of 44.5 ± 2.5%.

Work on `Oc1cc(O)c2cc(O)c(-c3cc(O)c(O)c(O)c3)[o+]c2c1` [Delphinidin] yielded an inhibition at 1 µg/mL (read-out: Inhibition rate) of 50.2 ± 4.3%.

`O=C1c2c(O)cc(O)cc2OC(c2ccc(O)cc2O)C1O` (stereo not shown) [Dihydromorin] showed an inhibition at 15 µg/mL (read-out: Inhibition rate) of 25.7 ± 4.7%.

With `O=c1c(O)c(-c2ccc(O)c(O)c2)oc2cc(O)ccc12` [Fisetin] the inhibition at 6 µg/mL (read-out: Inhibition rate) was 46.5 ± 2.3%.

In the case of `COc1ccc(-c2coc3cc(O)ccc3c2=O)cc1` [Formononetin], the inhibition at 20 µg/mL (read-out: Inhibition rate) is reported as 60.1 ± 5.3% and the inhibition at 30 µg/mL (read-out: Inhibition rate) is reported as 65.2 ± 4.3%.

Work on `O=c1c(O)c(-c2ccccc2)oc2cc(O)cc(O)c12` [Galangin] yielded an inhibition at 100 µg/mL (read-out: Inhibition rate) of 56.3 ± 4.5% and an inhibition at 150 µg/mL (read-out: Inhibition rate) of 84.4 ± 7.5%.

In the case of `COc1cc(O)c2c(=O)cc(-c3ccc(O)cc3)oc2c1` [Genkwanin], the inhibition at 35 µg/mL (read-out: Inhibition rate) is reported as 70.1 ± 5.5%.

Compound `COc1ccc(C2CC(=O)c3c(O)cc(O)cc3O2)cc1O` (stereo not shown) [Hesperetin] has an inhibition at 30 µg/mL (read-out: Inhibition rate) of 45.2 ± 3.2% and an inhibition at 50 µg/mL (read-out: Inhibition rate) of 63.4 ± 4.2%.

Compound `O=C(/C=C/c1ccc(O)cc1)c1ccc(O)cc1O` [Isoliquiritigenin] has an inhibition at 4 µg/mL (read-out: Inhibition rate) of 35.2 ± 2.5%.

For `COc1ccc(-c2oc3cc(O)cc(O)c3c(=O)c2O)cc1` [Kaempferide], the inhibition at 5 µg/mL (read-out: Inhibition rate) was 30.8 ± 1.3%.

`O=c1cc(-c2ccc(O)c(O)c2)oc2cc(O)cc(O)c12` [Luteolin] gave an inhibition at 1 µg/mL (read-out: Inhibition rate) of 45.5 ± 2.7%.

`O=c1c(O)c(-c2ccc(O)cc2O)oc2cc(O)cc(O)c12` [Morin] showed an inhibition at 1 µg/mL (read-out: Inhibition rate) of 41.2 ± 2.7%.

For `O=c1c(O)c(-c2cc(O)c(O)c(O)c2)oc2cc(O)cc(O)c12` [Myricetin], the inhibition at 1 µg/mL (read-out: Inhibition rate) was 41.2 ± 1.5%.

`O=C1C[C@@H](c2ccc(O)cc2)Oc2cc(O)cc(O)c21` [Naringenin] was tested, and the inhibition at 25 µg/mL (read-out: Inhibition rate) was 50.5 ± 4.3%.

Work on `O=C(CCc1ccc(O)cc1)c1c(O)cc(O)cc1O` [Phloretin] yielded an inhibition at 8 µg/mL (read-out: Inhibition rate) of 46.3 ± 2.7%.

`COc1c(-c2ccc(O)c(O)c2)oc2cc(O[C@@H]3OC(C)[C@@H](O)C(O)C3O)cc(O)c2c1=O` (stereo partly shown) [Vincetoxicoside] gave an inhibition at 12 µg/mL (read-out: Inhibition rate) of 48.7 ± 2.1%.

`C[C@H]1O[C@H](O[C@H]2[C@H](O)[C@@H](O)[C@@H](O[C@H]3[C@H](O)[C@@H](O)C(O)O[C@@H]3CO)O[C@@H]2CO)[C@H](O)[C@@H](O)[C@@H]1N[C@H]1C=C(CO)[C@@H](O)[C@H](O)[C@H]1O` (stereo partly shown) [acarbose] gave an inhibition at 350 µg/mL (read-out: Inhibition rate) of 46.2 ± 3.5%.

Chrysin was tested, and the Inhibition rate (100 μg/mL) was 51.2 ± 5.5%.

Vitexin showed an Inhibition rate (10 μg/mL) of 29.2 ± 1.4%.
